The compounds below were run against WT-CXCL12 (Homo sapiens, UniProt P48061) (assay: 2D 1H-15N SOFAST-HMQC NMR titration, binding to WT-CXCL12). Settings: 2D 1H-15N SOFAST-HMQC screen of docking hits.

Question: Which “binding to WT-CXCL12 (chemical shift perturbations)” value does the source give for `CC(C)O.CCCOc1ccc(C(Nc2ccc(F)cc2)P(=O)(O)O)cc1` (stereo not shown) [compound 6] here?
Answer: induced chemical shift perturbations to residues associated with the I4/I6 binding site

Question: How did the “binding to WT-CXCL12 (chemical shift perturbations)” value turn out when `COc1ccc(C2C(C(=O)O)CC(=O)N2Cc2ccsc2)cc1` (stereo not shown) [compound 5] was run?
Answer: bind non-specifically

Question: `O=C(O)CC1c2ccccc2CCN1C(=O)Nc1cccc(F)c1` (stereo not shown) [compound 7] was tested. Which “binding to WT-CXCL12 (chemical shift perturbations)” value did it give?
Answer: induced chemical shift perturbations to residues associated with the I4/I6 binding site

Question: How did the “binding to WT-CXCL12 (chemical shift perturbations)” value turn out when `O=C(O)CCn1cc(C(=O)c2ccccc2O)cc1-c1ccncc1` [compound 4] was run?
Answer: bind non-specifically
